Consider ten compounds from ChEMBL document CHEMBL5303304, “EUbOPEN Chemogenomics Library - IncuCyte” (2023).

Holding throughout (assay type): toxicity, cell-based
The test system of data set [1] is Fibroblast. The experiment in a line: Incucyte cell viability with human fibroblast. As to conditions: 10 µM, compound concentration 10 uM.
In data set [2] the test system is HEK-293T. The experiment in a line: Incucyte cell viability with HEK293T. The following applies: human, 10 µM, compound concentration 10 uM.
In data set [3] the test system is U2OS. The experiment in a line: Incucyte cell viability with U2OS. The following applies: human, 10 µM, compound concentration 10 uM.

Numbered stars: 1 amine (or outer) side, 2 acyl side, 3 side chain; on linkers, the order of the positions; unused ones are H or OH. Bridge positions count the residues as written; N and C are the ends. Square brackets hold non-standard residues; d marks the D form. Peptide text beside a SMILES is read from it. I, II: the chains in the order shown. Hexamethylenediamine = C(CCCN[*:2])CCN[*:1]; Dip = N[C@H](C(=O)O)C(c1ccccc1)c1ccccc1; Chg = N[C@H](C(=O)O)C1CCCCC1; NMeA = CN[C@@H](C)C(=O)O
Also: unitless GR value; below 1 slowed growth and below 0 cell loss.

For the compound `COc1ccccc1[C@@H]1CNCCC12CCN(C(=O)[C@](OC)(c1ccccc1)C(F)(F)F)CC2`, the “Growth Rate” value in data set [1] (0 h, replicate number 1) is recorded as -1; in data set [1] (6 h, replicate number 1) it was 0.9; in data set [1] (12 h, replicate number 1), 0.93; in data set [1] (12 h, replicate number 2) it was 0.7; in data set [1] (18 h, replicate number 1), 0.54; in data set [1] (18 h, replicate number 2), 0.97. For the same compound, the “Growth Rate” value in data set [1] (24 h, replicate number 1) is recorded as 0.63; in data set [1] (24 h, replicate number 2) it was 0.68; in data set [2] (12 h, replicate number 1) it was 0.43; in data set [2] (18 h, replicate number 1) it was 0.28; in data set [2] (18 h, replicate number 2), 0.64; in data set [2] (24 h, replicate number 1) it was 0.22. Besides, the “Growth Rate” value was 0.34 in data set [2] (24 h, replicate number 2); -0.8 in data set [3] (0 h, replicate number 1); 0.59 in data set [3] (0 h, replicate number 2); 0.37 in data set [3] (6 h, replicate number 1); 0.85 in data set [3] (12 h, replicate number 1); 0.73 in data set [3] (18 h, replicate number 1). Moreover, the “Growth Rate” value is 0.99 in data set [3] (18 h, replicate number 2); 0.53 in data set [3] (24 h, replicate number 1); 0.82 in data set [3] (24 h, replicate number 2).
Turning to `CN[C@@H](C)C(=O)N[C@H](C(=O)N1CCC[C@H]1C(=O)N[C@H](C(=O)NCCCCCCNC(=O)[C@@H](NC(=O)[C@@H]1CCCN1C(=O)[C@@H](NC(=O)[C@H](C)NC)C1CCCCC1)C(c1ccccc1)c1ccccc1)C(c1ccccc1)c1ccccc1)C1CCCCC1` (I: H-[NMeA][Chg]P[Dip] / II: H-[NMeA][Chg]P[Dip]; linker I:C-II:C via Hexamethylenediamine), the “Growth Rate” value was -0.82 in data set [1] (0 h, replicate number 2); 0.82 in data set [1] (12 h, replicate number 1); 0.74 in data set [1] (12 h, replicate number 2); 0.47 in data set [1] (18 h, replicate number 1); 0.49 in data set [1] (18 h, replicate number 2); 0.5 in data set [1] (24 h, replicate number 1). In addition, the “Growth Rate” value in data set [1] (24 h, replicate number 2) is on record as 0.33; in data set [2] (6 h, replicate number 1), -0.33; in data set [2] (6 h, replicate number 2) it was -0.41; in data set [2] (12 h, replicate number 1), -0.42; in data set [2] (12 h, replicate number 2), -0.4; in data set [2] (18 h, replicate number 1), -0.3. Further, the “Growth Rate” value in data set [2] (18 h, replicate number 2) is on record as -0.31; in data set [2] (24 h, replicate number 1), -0.23; in data set [2] (24 h, replicate number 2), -0.25; in data set [3] (0 h, replicate number 2), -0.47; in data set [3] (6 h, replicate number 1), -0.4; in data set [3] (6 h, replicate number 2) it was -0.46. For the same compound, the “Growth Rate” value is -0.41 in data set [3] (12 h, replicate number 1); -0.63 in data set [3] (12 h, replicate number 2); -0.25 in data set [3] (18 h, replicate number 1); -0.21 in data set [3] (18 h, replicate number 2); -0.22 in data set [3] (24 h, replicate number 1); -0.21 in data set [3] (24 h, replicate number 2).
On to `CNc1ncc2cc(-c3ccc(-c4cccc(C)n4)cc3Cl)c(=O)n(C[C@H]3OC[C@H](N)CO3)c2n1`, for which the “Growth Rate” value in data set [1] (0 h, replicate number 1) is reported as 0.26; in data set [1] (0 h, replicate number 2) it was -0.44; in data set [1] (6 h, replicate number 2), 0.69; in data set [1] (12 h, replicate number 1), 0.36; in data set [1] (12 h, replicate number 2) it was 0.19; in data set [1] (18 h, replicate number 1), 0.37. Besides, the “Growth Rate” value in data set [1] (18 h, replicate number 2) is reported as 0.14; in data set [1] (24 h, replicate number 1), 0.41; in data set [1] (24 h, replicate number 2), 0.16; in data set [2] (0 h, replicate number 1) it was -0.96; in data set [3] (0 h, replicate number 1), 0.31; in data set [3] (6 h, replicate number 2) it was 0.37. The “Growth Rate” value is on record as 0.83 in data set [3] (12 h, replicate number 2); 0.77 in data set [3] (18 h, replicate number 2); 0.53 in data set [3] (24 h, replicate number 2).
Take `O=C(O)CCn1c2c(c3ccccc31)C[C@H](NS(=O)(=O)c1ccc(F)cc1)CC2` [RAMATROBAN]: the “Growth Rate” value was found to be 0.99 in data set [1] (12 h, replicate number 2); 0.89 in data set [1] (18 h, replicate number 2); 0.74 in data set [1] (24 h, replicate number 2); 0.1 in data set [2] (0 h, replicate number 1); 0.04 in data set [2] (0 h, replicate number 2); 0.53 in data set [3] (0 h, replicate number 1). Further, in data set [3] (6 h, replicate number 1), the “Growth Rate” value is 0.88.
For `Clc1ccccc1C(c1ccccc1)(c1ccccc1)n1ccnc1` [CLOTRIMAZOLE], the “Growth Rate” value in data set [1] (0 h, replicate number 1) was found to be 0.95; in data set [1] (0 h, replicate number 2), 0.29; in data set [1] (18 h, replicate number 1), 0.54; in data set [1] (18 h, replicate number 2), 1; in data set [1] (24 h, replicate number 1), 0.82; in data set [2] (0 h, replicate number 1), 0.08. In addition, the “Growth Rate” value was -0.96 in data set [2] (0 h, replicate number 2); 0.62 in data set [2] (6 h, replicate number 2); 0.5 in data set [2] (12 h, replicate number 2); 0.79 in data set [2] (18 h, replicate number 1); 0.54 in data set [2] (18 h, replicate number 2); 0.72 in data set [2] (24 h, replicate number 1). Also, the “Growth Rate” value came to 0.41 in data set [2] (24 h, replicate number 2); 0.7 in data set [3] (0 h, replicate number 2); 0.77 in data set [3] (6 h, replicate number 2); 0.97 in data set [3] (12 h, replicate number 1); 0.94 in data set [3] (12 h, replicate number 2); 0.81 in data set [3] (18 h, replicate number 2). The “Growth Rate” value in data set [3] (24 h, replicate number 2) was found to be 0.76.
Take `Cc1nnc2ccc(-c3cccc(C(F)(F)F)c3)nn12` [CI-218872]: the “Growth Rate” value in data set [1] (6 h, replicate number 1) is on record as 0.38; in data set [1] (6 h, replicate number 2) it was -1; in data set [1] (12 h, replicate number 1) it was -1; in data set [1] (12 h, replicate number 2) it was 0.98; in data set [2] (0 h, replicate number 1), 0.97; in data set [2] (0 h, replicate number 2), 0.45. Also, the “Growth Rate” value in data set [2] (12 h, replicate number 2) came to 0.87; in data set [2] (18 h, replicate number 2), 0.95; in data set [2] (24 h, replicate number 2) it was 0.99; in data set [3] (6 h, replicate number 1), 0.76; in data set [3] (6 h, replicate number 2) it was 0.83; in data set [3] (12 h, replicate number 1) it was 0.88. In addition, the “Growth Rate” value was found to be 0.84 in data set [3] (18 h, replicate number 1) and 0.97 in data set [3] (18 h, replicate number 2).
In the case of `Cc1c(NC(=O)c2cccn(-c3ccc(F)cc3)c2=O)ccc(Oc2ccnc(NC(=O)C3CC3)c2)c1C`, the “Growth Rate” value is 0.16 in data set [1] (0 h, replicate number 2); 0.52 in data set [1] (6 h, replicate number 1); 0.99 in data set [1] (6 h, replicate number 2); 0.59 in data set [2] (6 h, replicate number 1); 0.27 in data set [2] (6 h, replicate number 2); 0.78 in data set [2] (12 h, replicate number 2). The “Growth Rate” value in data set [2] (18 h, replicate number 2) is 0.94; in data set [3] (0 h, replicate number 1) it was -0.05; in data set [3] (0 h, replicate number 2) it was -0.46; in data set [3] (12 h, replicate number 1), 0.92; in data set [3] (18 h, replicate number 1), 0.85; in data set [3] (24 h, replicate number 2) it was 0.96.
For `COc1cc2nc(C)nc(NC3(c4ccccc4)CC3)c2cc1OC`, the “Growth Rate” value in data set [1] (0 h, replicate number 2) was determined as 0.11; in data set [1] (6 h, replicate number 1), 0.99; in data set [1] (6 h, replicate number 2), 0.66; in data set [1] (12 h, replicate number 1) it was 0.99; in data set [1] (12 h, replicate number 2), 0.7; in data set [2] (18 h, replicate number 1), 0.87. Also, the “Growth Rate” value in data set [2] (24 h, replicate number 1) came out at 0.93; in data set [3] (6 h, replicate number 1), 0.52; in data set [3] (12 h, replicate number 1), 0.94; in data set [3] (12 h, replicate number 2), 0.97; in data set [3] (18 h, replicate number 1), 0.94; in data set [3] (24 h, replicate number 1) it was 0.86.
Turning to `O=C(CNCc1cc2ccccc2[nH]1)N[C@H]1CC[C@@H](c2nc3ccccc3[nH]2)CC1`, the “Growth Rate” value turned out to be 0.8 in data set [1] (0 h, replicate number 2); 0.9 in data set [1] (6 h, replicate number 1); 0.7 in data set [1] (6 h, replicate number 2); 0.79 in data set [1] (12 h, replicate number 1); 0.69 in data set [1] (12 h, replicate number 2); 0.78 in data set [1] (18 h, replicate number 1). Moreover, the “Growth Rate” value is 0.78 in data set [1] (24 h, replicate number 1); -0.1 in data set [2] (0 h, replicate number 1); -0.87 in data set [2] (0 h, replicate number 2); 0.27 in data set [2] (6 h, replicate number 2); 0.76 in data set [2] (12 h, replicate number 2); 0.77 in data set [2] (18 h, replicate number 2). Moreover, the “Growth Rate” value is listed as 0.89 in data set [2] (24 h, replicate number 2); -0.05 in data set [3] (0 h, replicate number 1); 0.65 in data set [3] (6 h, replicate number 1); 1 in data set [3] (6 h, replicate number 2); 0.55 in data set [3] (12 h, replicate number 1); 0.82 in data set [3] (18 h, replicate number 1). Moreover, the “Growth Rate” value in data set [3] (24 h, replicate number 1) is given as 0.8.
Regarding `Cc1cc(OC2CCS(=O)(=O)CC2)cc(C)c1-c1cccc(COc2ccc(C(=O)O)c(F)c2)c1`, the “Growth Rate” value in data set [1] (0 h, replicate number 1) is reported as -0.85; in data set [1] (6 h, replicate number 1), 0.86; in data set [1] (12 h, replicate number 2) it was 0.57; in data set [1] (24 h, replicate number 2), 0.92; in data set [2] (0 h, replicate number 2) it was 0.65; in data set [2] (12 h, replicate number 2), 0.96. For the same compound, the “Growth Rate” value in data set [2] (18 h, replicate number 1) was 0.96; in data set [2] (18 h, replicate number 2), 0.88; in data set [2] (24 h, replicate number 1), 0.9; in data set [2] (24 h, replicate number 2) it was 0.84; in data set [3] (0 h, replicate number 2), 0.93; in data set [3] (6 h, replicate number 1) it was 0.56. Besides, the “Growth Rate” value worked out at 0.65 in data set [3] (6 h, replicate number 2); 0.61 in data set [3] (12 h, replicate number 1); 0.49 in data set [3] (12 h, replicate number 2); 0.85 in data set [3] (18 h, replicate number 1); 0.77 in data set [3] (18 h, replicate number 2); 0.98 in data set [3] (24 h, replicate number 1). For the same compound, in data set [3] (24 h, replicate number 2), the “Growth Rate” value is given as 0.75.
